According to US10472352B2, “Rac inhibitors” (Geneyus LLC, priority 2017, dated 2019):
pIC50: −log10 of the molar value.

Experiments:
HUVECs [1] = assay: Cell Migration Assay (Boyden chamber); format: cell-based; conditions: 5 uM
Method: An essential characteristic of malignant cells is their ability to migrate, invade host tissues and to produce metastases. In order to evaluate the capacity of one compound to affect the ability of tumoral cells to migrate, migration assays were performed using HUVEC cells.
HUVECs (2.5×10^4) were seeded onto uncoated filters in a 24-well transwell Boyden chamber ([…]; Costar) and allowed to migrate in the presence and absence of different doses of the Rac1 inhibitor 0032253 (5, 6.25, 10, 12.5, 20, 25 μM). The cells that migrated to the underside of the filter were stained with crystal violet and counted under the bright field microscopy.

[2] = target: His-Rac1 / GST-PBD (PAK Binding Domain) (Homo sapiens, UniProt P63000); assay: Rac Activation AlphaScreen Assay (Rac1 AS); format: biochemical; conditions: 500 nM GTPγS, 37° C., 1 hour; 'positive' = signal generated was higher than the positive control
Method: AlphaScreen® assays were performed in 96-well microplates in a final reaction volume of 60 μl. Recombinant His-Rac1, recombinant GST-PBD (PAK Binding Domain), donor and acceptor beads (PerkinElmer), and inhibitors were incubated in exchange buffer (20 mM Tris pH 7.5, 50 mM NaCl, 1 mM MgCl2, 1 mM EDTA, 500 nM GTPγS (guanosine 5′-[γ-thio]triphosphate)) at 37° C. Readings were performed on a Tecan M1000 pro microplate reader after 1 hour.

HUVECs [3] = assay: Cellular Proliferation Assay; format: cell-based; conditions: 25 uM, cells counted day 0 through day 4
Method: 25,000 cells were seeded in 6-well plates. The next day, vehicle (DMSO) or 25 μM 0032253 was added to cells (Day 0). Cells were counted on days 0 through day 4 using a hemocytometer.

WM1158 cells = assay: Western Blot Analysis of phosphorylated AKT, MEK1/2, ERK1/2; format: cell-based; conditions: increasing concentrations, two hours, vs DMSO control
Excerpt: Western blot analysis is used to identify specific proteins from a complex mixture of proteins extracted from cells. Equal amount of protein is run on the SDS-PAGE gel and after separating the protein mixture, it is transferred to a membrane. The transferred protein is then probed with a combination of antibodies: one antibody specific to the protein of interest (primary antibody) and another antibody specific to the host species of the primary antibody (secondary antibody). The secondary antibody is complexed with an enzyme, which when combined with an appropriate substrate, will produce a detectable signal.
WM1158 cells were treated with increasing concentrations of 0032253 for two hours. SDS-PAGE was conducted on cell lysates and Western Blot analysis was conducted on samples for total and phosphorylated AKT, MEK1/2, and ERK1/2.

HUVECs [4] = assay: HUVEC Tube Formation Assay; format: cell-based; conditions: doses above 6.25 μM, 8 h, Matrigel
Method: The endothelial cell tube formation assay is an in vitro assay that is widely accepted to accurately reflect number of terminal stages of the angiogenic process such as attachment, migration and differentiation into tubular structures. In this model, endothelial cells are cultured on a monolayer of reconstituted basement membrane components (Matrigel) and form, in a few hours, capillary-like structure. Therefore, this system is a useful and powerful tool for rapidly screening anti-angiogenic agents by monitoring inhibition of endothelial cells morphogenesis on extracellular matrix.
HUVECs (5×10^3) were seeded on top of Matrigel in a 24-well plate. The cells were treated either with DMSO or different concentrations of the Rac1 inhibitor 0032253 (5, 6.25, 10, 12.5 μM) for 8 h in triplicate. The plates were scanned by LICOR Odyssey Imaging system.

[5] = test system: MCF-7 human breast cancer cell line; assay: Cell Viability Assay (MCF7), PrestoBlue; format: cell-based; conditions: MCF7, 72 h, MCF-7 cells, three days after drug treatment
Method: In order to determine a compound's effect on cell viability, PrestoBlue assays were performed as previously described by Kuhn et al. (2013) with modifications. MCF-7 human breast cancer and IGR-1 human melanoma cell lines were seeded into 96-well plates 24 hours prior to addition of drug. Cells were treated with 0 to 200 μM (11 concentrations) of compound solubilized in DMSO, adjusting the final concentration of DMSO to 1% in the well. Three days after drug treatment, cell viability was measured by adding PrestoBlue (Life Technologies Ltd.; cat. No. A13262) reagent directly to wells containing media/drug to reach a final concentration of 10%. PrestoBlue is a modified molecule of the common Alamar Blue probe used to determine viability based on the ability of a cell to metabolize a nonfluorescent compound (resazurin) to a florescent molecule (resorufin). Following a 1 hour incubation period, total well fluorescence was measured using the microplate reader M1000 pro (Tecan) with excitation 560-5 nm and emission 590-5 nm. […] The percentage of living cells was then computed by comparison with control wells. Kuhn, Jonas et al., Assay and Drug Development Technologies, March 2013, Label-Free Cytotoxicity Screening Assay by Digital Holographic Microscopy.

Rac1 protein = target: T1, Rac1 protein (Homo sapiens, UniProt P63000); assay: Fluorescence Polarization Assay (Rac1 FP); format: binding; conditions: 125 nM his-tagged Rac1, 12.5 nM Bodipy-TR GTPγS, 30 minutes at 37° C.
T1 construct: purchased Cytoskeleton Inc. RC01
Method: Direct binding of Rac1 compound inhibitors to Rac1 protein was performed using fluorescence polarization (FP). Briefly, Rac1 inhibitors were initially dissolved in DMSO and then serial drug dilutions in exchange buffer (20 mM Tris pH 7.5, 50 mM NaCl, 1 mM MgCl, 1 mM EDTA) were prepared in a flat black 96-well half-area plate (Greiner). Recombinant his-tagged Rac1 protein (Cytoskeleton Inc. Cat. # RC01) was added to the inhibitors at a final concentration of 125 nM along with 12.5 nM Bodipy-TR GTPγS (Life Technologies Inc. Cat. # G35780) in exchange buffer and incubated for 30 minutes at 37° C. in exchange buffer. After 30 minutes of incubation. FP was measured on the M1000 Pro (Tecan) fluorescent plate reader with 590 nm±5 nm excitation and 625 nm±5 nm emission spectra settings.

- Rac1 AS IC50(uM) [2]: positive
- pIC50 [5]: 5.36
- pIC50 (Rac1 protein): 5.47
SMILES: FC(F)(F)c1ccc2c(SCCCCCCn3cc(CN4CCOCC4)nn3)ccnc2c1 (racemic) [Compound 0032253, 4-({6-[4-(morpholin-4-ylmethyl)-1H-1,2,3-triazol-1-yl]hexyl}sulfanyl)-7-(trifluoromethyl)quinoline]
- HUVEC migration through a Boyden Chamber (HUVECs [1]): impairs the ability of HUVECs to migrate through a Boyden Chamber
- HUVEC proliferation (HUVECs [3]): completely inhibits the ability of HUVECs to proliferate
- expression of phosphorylated AKT (WM1158 cells): reduced as compared to DMSO control
- expression of phosphorylated ERK1/2 (WM1158 cells): reduced as compared to DMSO control
- expression of phosphorylated MEK1/2 (WM1158 cells): reduced as compared to DMSO control
- HUVEC tube formation (HUVECs [4]): significantly reduce the ability of HUVECs to form tube like structures
